Results: patent US20070049538A1, “METHODS FOR USING CUCURBITACIN COMPOUNDS” (SOUTH DAKOTA STATE UNIVERSITY, priority 2005, published 2007)

What was measured:
[1] = Chromatographic hydrophobicity index (CHI) by RP-HPLC in buffered methanol; assay type: physicochemical; conditions: for CHIMeOH (b): standard compounds, isochratic and gradient elution of standard mixture; for CHIMeOH: buffered methanol pH 7.0, Econosil C18 150 mm, Eq. (4)
Description: (§1) We used Dynamax liquid chromatograph (Varian Chromatography Systems) with PDA-2 photodiode array UV detector, controlled by the Dynamax PC Chromatography Data System (v. 1.9) software and Dynamax dual pump solvent delivery system, model SD-200. […] Cucurbitacins analytical separation was optimized on Alltima C18 (Alltech; 250 mm×4.6 mm, 5 μm) HPLC column, at gradient elution in acetonitrile (ACN, 30-70% ACN in 57 min), and in MeOH (60-75% MeOH in 50 min). Cucurbitacins stock concentration of 10^−2M in DMSO:ethanol (1:1) was standardized against pure cucurbitacin I (Indofine Chemical Company, Hillsborough, N.J.) by analytical HPLC means. Compounds CHI was measured in both ACN, by using Alltima C18 column, and in MeOH, by using Econosil C18 column (Alltech; 150 mm×4.6 mm, 5 μm). Analytical separations were conducted at a flow rate of 1 ml/min. The aqueous phase was buffered for the CHI measurement. For this purpose, solid ammonium acetate (Fisher Sci. Co., Fair Lawn, N.J.) was dissolved in deionized distilled water at 50 mM final concentration and its pH adjusted to 7.0.
A standard mixture of 10 compounds including 19-21, 23-27, aniline (compound 28) and bromobenzene (compound 29), dissolved in MeOH, was injected at five isochratic elution, at 40, 45, 50, 55, and 60% MeOH. Then the mixture was injected at fast gradient elution to establish the correlation from Eq. (1). The fast linear gradient elution was optimized for 30-100% MeOH in aqueous buffer with 10 min runtime.
(§2) Cucurbitacins lipophilicity was measured by RP-HPLC. […] Due to its high viscosity, aqueous MeOH required a shorter column than the one applied for ACN. First, the C18 columns were calibrated against a standard mixture, and the relationships established between the fast gradient tR and φ0 or published CHI (see Eqs. (2)-(4) from Table 2). Second, cucurbitacins were injected at fast gradient elution under similar conditions, and their CHI calculated (Table 4) from Eqs. (2)-(4). Eqs.

[2] = standard compounds; gradient elution and correlation with published data; cited from earlier work
[3] = system: HSC-T6 cells; test: Serum-driven HSC-T6 proliferation, experiment 3 (24 h, proliferating cells); assay type: cell-based, rat; conditions: HSC-T6, 24 h, proliferating cells; read-out: Experiment 3 EC50 (A)
Description: To overcome this problem, the amount of incubation time was increased to 24 h, and cucurbitacin activity measured on starved (Exp. 2) or proliferative (Exp. 3) cells (Table 8). Cells turned quiescent when serum was not supplemented for one day (Exp. 2). Activity of a few compounds was monitored on quiescent cells, and their activity compared to the ones measured on proliferating cells (Exp. 3).
We established several experimental conditions such as 4 hours of incubation time with cucurbitacin, and 2 day cell incubation with fresh media after challenging with cucurbitacin (Exp. 1). Other experiments involved addition of cucurbitacin for 24 hours over starved cells (Exp. 2) vs. proliferating cells (Exp. 3), and one day incubation of cells with fresh media after challenge. The 4 hour incubation period with cucurbitacin triggered anti-proliferation effect. This effect, however, was hindered by a second cycle of cell proliferation during the two-day cell growth period (see silybin, E and I glucosides, and for I-nPr). […] Because of that, the challenge time was increased to 24 hours (Exp. 2 and 3).
In experiment 3, only 40% of the cells divided. The ratio of EC50 values for exp. 2 and exp. 3 varied between 3.6 and 12.7. This may indicate differential cytotoxicity of silybin and cucurbitacin analogs over quiescent and active stellate cells. In other words, compounds show higher anti-proliferative activity on active cells than on quiescent cells.

[4] = system: HepG2 cells; test: Cucurbitacins cytotoxicity on HepG2 cells (MTT viability assay); assay type: cell-based, human
Description: HepG2 (human hepatocellular carcinoma, ATCC) cells were grown in EMEM (Gibco, Grand Island, N.Y.) supplemented with 10% fetal bovine serum (FBS), and 1% penicillin/fungizone mixture (Gibco). Thabrew's optimized procedure (Thabrew et al., J. Pharm. Pharmcol. 49 (1994) 1442, the entire disclosure of which is herein incorporated by reference) was followed. Cells were batch cultured for 10 days, then seeded at concentration of 30,000 cells/well in fresh media in 96-well microtiter plastic plates at 37° C. for a day. Then cells were exposed to different concentrations of cucurbitacins at final volume of 100 μl/well. Five-fold serial dilution of compounds was carried out in the plate for five consecutive wells. After 24 h of incubation with chemicals, live cells were visualized using the MTT viability assay (Promega, Madison, Wis.). The absorbance was measured at 570 nm. Negative (without cells) and positive (without test chemicals) controls were also incubated with each plate. […] At least three reproducible experiments were performed per compound with three replicate wells per concentration.
Cells were challenged with cu-curbitacins at various concentrations for a day and then live cells quantified with MTT dye. This period of time measures exclusively compounds cytotoxicity, while longer incubation time may lead to interference from metabolites.

[5] = Chromatographic hydrophobicity index (CHI) by RP-HPLC in buffered acetonitrile; assay type: physicochemical; design: key: CHI = φ0 (isocratic hydrophobicity index), = A·tR + B; ACN % scale; conditions: for CHIACN1: buffered acetonitrile pH 7.0, Alltima C18 250 mm, Eq. (2) from isocratic φ0; for CHIACN2: buffered acetonitrile pH 7.0, Eq. (3) calibrated against published CHI
Description: as §1
All standard compounds were purchased from Acros (Acros Organics, NJ). The chromatographic lipophilicity or hydrophobicity was determined applying Valkó's technique (Valkó et al., Anal. Chem. 69 (1997) 2022, the entire disclosure of which is herein incorporated by reference). A standard mixture of seven compounds was prepared in solution: theophylline (compound 19), benzimidazole (compound 20), acetophenone (compound 21), indole (compound 22), propiophenone (compound 23), butyrophenone (compound 24), and valerophenone (compound 25). […] The retention factor, log k=log((tR-t0)/t0), was calculated for each analyte from five good injections of […] sample. The dead time (t0) was measured by injecting NaNO3 together with the sample. Then, the log k values were plotted against isocratic ACN concentrations to establish the linear regression equations for each analyte. From each straight line the isocratic hydrophobicity index was computed, φ0=(intercept/slope). Further, the calibration mixture was injected at fast gradient elution, 0-22 min 0-100% ACN, and three additional minutes at 100% ACN. The φ0 values for the test compounds were plotted against gradient retention time and the linear equation determined from the following equation: φ0=CHI=AtR+B (1)
The gradient elution conditions were similar to the one from the first approach.
as §2

[6] = system: HSC-T6 cells; test: Cytotoxicity on HSC-T6 cells (experiment 3); assay type: cell-based, rat; conditions: read-out: Experiment 3 IC50 (T)
Text: Cytotoxicity of all cucurbitacin analogs was additionally measured in experiment 3 (Table 8).

[7] = system: HSC-T6 cells; test: Serum-driven HSC-T6 proliferation, experiment 1 (4 h challenge, two days drug-free growth); assay type: cell-based, rat; conditions: for EC50: HSC-T6, 4 h challenge, then two days drug-free media
Description: The proliferation effect of serum on HSC-T6 cells was optimized and cucurbitacin antiproliferative activity was measured. Serum contains a large number of growth factors, hormones and other nutrients, which help cells to grow and multiply. Several trials were conducted. In experiment 1, cells were challenged with cucurbitacin analogs for 4 h and then cells were grown in drug-free media for two additional days.
HSC-T6 cells were photographed under phase-contrast microscope to record possible changes in cell morphology during experiment 1. […] We are monitoring specifically the effect of compound on the cells, cell recovery after 4 h challenge, and relative cell proliferation. […] Live cells are quantified at the end of the assay (row 4) with MTT dye.
We established several experimental conditions such as 4 hours of incubation time with cucurbitacin, and 2 day cell incubation with fresh media after challenging with cucurbitacin (Exp. 1). Other experiments involved addition of cucurbitacin for 24 hours over starved cells (Exp. 2) vs. proliferating cells (Exp. 3), and one day incubation of cells with fresh media after challenge. […] Because of that, the challenge time was increased to 24 hours (Exp. 2 and 3).
We modified this approach. Our assay included a second control (ZC) supplemented with no serum intended to measure cucurbitacin anti-proliferation effect relative to the number of cells generated during challenge instead of the total number of cells present in each well.

[8] = system: HepG2 cells; test: cells; conditions: for EC50: read-out: EC50 cytoprotection, Table 7, HepG2 against CCl4 toxicity, estimated
Text: Experimental conditions were standardized on silybin. […]
The ratio of IC50-to-EC50 (hereafter T/A) is also indicated in this table, which gives the margin between toxic and cytoprotective concentrations.

Compound | CHIMeOH (b) [1] | CHIACN (c) [2] | EC50 [3] | IC50 ([4]; Table 4, 24 h incubation, MTT) | IC50 ([4]; Table 5) | CHIACN1 [5] | CHIACN2 [5] | IC50 [6] | CHIMeOH [1] | EC50 [7] | cytoprotection on HepG2 cells ([8]; at 6.25% of IC50, against CCl4) | cytoprotection on HepG2 cells ([8]; at 12.5% of IC50, against CCl4) | cytoprotection on HepG2 cells ([8]; at 20% of IC50, against CCl4) | cytoprotection on HepG2 cells ([8]; at 50% of IC50, against CCl4) | IC50 ([4]; Table 7) | EC50 [8] | Experiment 1 anti-proliferation activity ([7]; measured at 100 μM) | Experiment 1 anti-proliferation activity ([7]; measured at 2-6 μM) | CHIACN (b) ([5]; standard compounds, isochratic and gradient elution of standard mixture)
Nc1ccccc1 [Aniline (28), aniline, reference compound] | 29.94 ± 0.05 | – | – | – | – | – | – | – | – | – | – | – | – | – | – | – | – | – | –
COc1cc2c(c(OC)c1OC)-c1ccc(OC)c(=O)cc1[C@@H](NC(C)=O)CC2 [Colchicine (26), colchicine, reference compound] | 57.56 + 0.04 | 41.37 | – | – | – | – | – | – | – | – | – | – | – | – | – | – | – | – | –
CCOC1=CC2C(=CCC3C2(C)C(=O)CC2(C)C(C(C)(O)C(=O)C=CC(C)(C)OC(C)=O)C(O)CC32C)C(C)(C)C1=O (stereo not shown) [E-Et] | – | – | 0.27 µM | 5.1 µM | 5.1 ± 0.9 µM | 82.76 | 93.73 | 3.5 µM | 74.25 | 5.6 µM | – | – | – | – | – | – | – | – | –
CC(=O)OC(C)(C)C=CC(=O)C(C)(O)C1C(O)CC2(C)C3CC=C4C(C=C(OC(C)C)C(=O)C4(C)C)C3(C)C(=O)CC12C (stereo not shown) [E-iPr] | – | – | 0.32 µM | 4.3 µM | 4.3 ± 0.5 µM | 86.84 | 100.04 | 2.5 µM | 76.30 | 2.13 µM | −0.60 ± 1.11 | −7.81 ± 0.68 | −7.00 ± 0.17 | −32.99 ± 1.70 | – | – | – | – | –
CCCOC1=CC2C(=CCC3C2(C)C(=O)CC2(C)C(C(C)(O)C(=O)C=CC(C)(C)OC(C)=O)C(O)CC32C)C(C)(C)C1=O (stereo not shown) [E-nPr] | – | – | 0.34 µM | – | – | 88.34 | 102.37 | 2.8 µM | 77.66 | 2.28 µM | – | – | – | – | – | – | – | – | –
CC(C)(O)/C=C/C(=O)[C@](C)(O)[C@H]1[C@H](O)C[C@@]2(C)[C@@H]3CC=C4[C@@H](C=C(O)C(=O)C4(C)C)[C@]3(C)C(=O)C[C@]12C [I, cucurbitacin I] | – | – | 0.02 µM | 15.8 µM | 15.8 ± 6.7 µM | 63.27 | 63.53 | 3.6 µM | 63.86 | 0.36 µM | 4.55 ± 0.64 | 17.50 ± 1.32 | 50.09 ± 1.02 | 54.75 ± 0.29 | 15.8 µM | 3.2 µM | – | – | –
CC(C)(O)/C=C/C(=O)[C@](C)(O)C1[C@H](O)C[C@@]2(C)C3CC=C4C(C=C(O[C@@H]5O[C@H](CO)[C@@H](O)[C@H](O)[C@H]5O)C(=O)C4(C)C)[C@]3(C)C(=O)C[C@]12C (stereo partly shown) [I-Gluc, cucurbitacin I glucoside] | – | – | 4.15 µM | 390 ± 10 µM | 390 ± 10 µM | 46.48 | 37.50 | 256 µM | 56.41 | – | – | – | – | – | – | – | ˜20%^a^ | – | –
CC(C)OC1=CC2C(=CCC3C2(C)C(=O)CC2(C)C(C(C)(O)C(=O)C=CC(C)(C)O)C(O)CC32C)C(C)(C)C1=O (stereo not shown) [I-iPr] | – | – | 0.25 µM | 7 ± 1 µM | 7.3 ± 0.6 µM | 73.87 | 79.94 | 2.5 µM | 71.55 | 3.85 µM | −17.10 ± 1.54 | 4.15 ± 0.48 | 18.69 ± 0.13 | 41.73 ± 2.06 | – | – | – | – | –
CCCOC1=CC2C(=CCC3C2(C)C(=O)CC2(C)C(C(C)(O)C(=O)C=CC(C)(C)O)C(O)CC32C)C(C)(C)C1=O (stereo not shown) [I-nPr] | – | – | 0.33 µM | 5 µM | 5 ± 0.5 µM | 75.92 | 83.13 | 2.5 µM | 72.88 | – | – | – | – | – | – | – | – | ˜18%^b^ | –
c1ccc2[nH]ccc2c1 [Indole (22), indole, reference compound] | – | 69.15 | – | – | – | – | – | – | – | – | – | – | – | – | – | – | – | – | 67.73 + 0.13
Cn1c(=O)c2nc(-c3ccccc3)[nH]c2n(C)c1=O [Ph-theophylline (27), phenyltheophylline, reference compound] | 61.61 ± 0.04 | 52.04 | – | – | – | – | – | – | – | – | – | – | – | – | – | – | – | – | –
CC(C)(O)/C=C/C(=O)C(C)(O)C1C(O)CC2(C)C3CC=C4C(CC(=O)C(O)C4(C)C)C3(C)C(=O)CC12C (stereo not shown) [iso-D] | – | – | 0.06 µM | 80.3 µM | 80.3 ± 3.5 µM | 60.59 | 59.37 | 8.7 µM | 62.27 | 2.13 µM | – | – | – | – | 80.3 µM | 13.8 µM | – | – | –
